Experiments:
IKKβ(C179A) = target: T1, IKKβ(C179A) (Homo sapiens, UniProt O14920, C179A); test: Recombinant IKKβ(C179A) (Sf9) kinase activity; format: biochemical; design: FLAG; made in house; host or cells: Sf9 (baculovirus); conditions: FIG. 6D; PGA1 data not shown
T1 sequence (O14920 1-756 C179A): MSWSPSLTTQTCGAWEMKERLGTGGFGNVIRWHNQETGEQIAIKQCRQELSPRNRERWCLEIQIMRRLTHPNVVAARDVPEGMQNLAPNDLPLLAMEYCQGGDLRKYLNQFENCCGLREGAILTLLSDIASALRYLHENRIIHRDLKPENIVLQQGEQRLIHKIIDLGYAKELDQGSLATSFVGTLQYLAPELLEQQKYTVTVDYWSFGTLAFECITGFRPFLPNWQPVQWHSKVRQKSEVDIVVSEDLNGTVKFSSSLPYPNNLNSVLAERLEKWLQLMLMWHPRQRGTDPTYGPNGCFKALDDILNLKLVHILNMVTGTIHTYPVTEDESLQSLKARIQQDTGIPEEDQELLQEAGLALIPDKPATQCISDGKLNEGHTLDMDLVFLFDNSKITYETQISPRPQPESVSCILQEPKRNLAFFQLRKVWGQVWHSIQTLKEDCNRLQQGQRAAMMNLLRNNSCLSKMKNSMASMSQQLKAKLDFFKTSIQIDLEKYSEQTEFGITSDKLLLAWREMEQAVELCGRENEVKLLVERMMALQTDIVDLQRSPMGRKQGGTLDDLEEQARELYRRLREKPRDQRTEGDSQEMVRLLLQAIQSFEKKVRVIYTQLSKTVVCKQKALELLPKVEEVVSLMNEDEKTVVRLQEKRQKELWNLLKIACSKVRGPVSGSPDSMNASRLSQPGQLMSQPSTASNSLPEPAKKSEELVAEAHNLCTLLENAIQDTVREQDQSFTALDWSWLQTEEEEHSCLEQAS
Experimental: In addition, recombinant IKKβ was expressed in Sf9 cells and purified as described (Zandi et al., supra). AA, PGs, LTB4, and T×B2 were added to washed imnmunoprecipitates of recombinant IKKβ in kinase buffer to a final volume of 500 μl. After 1.5 hours at 4° C., the immunoprecipitates were washed and the kinase activity determined. Western blot analysis was also performed as known in the art (See e.g., Rossi et al., supra).

IKK = IKK (Homo sapiens, UniProt O14920+O15111); test: Endogenous IKK activity (kinase assay) in treated, stimulated HeLa cells; format: cell-based; design: Endogenous IKK was immunoprecipitated from TNFα-stimulated HeLa cells; endogenous in cells; host or cells: HeLa; conditions: for effect on IKK activity: HeLa cells stimulated with TNFα (PGA1: IL-1 or TNFα)
Chain of IKK (O14920 whole entry): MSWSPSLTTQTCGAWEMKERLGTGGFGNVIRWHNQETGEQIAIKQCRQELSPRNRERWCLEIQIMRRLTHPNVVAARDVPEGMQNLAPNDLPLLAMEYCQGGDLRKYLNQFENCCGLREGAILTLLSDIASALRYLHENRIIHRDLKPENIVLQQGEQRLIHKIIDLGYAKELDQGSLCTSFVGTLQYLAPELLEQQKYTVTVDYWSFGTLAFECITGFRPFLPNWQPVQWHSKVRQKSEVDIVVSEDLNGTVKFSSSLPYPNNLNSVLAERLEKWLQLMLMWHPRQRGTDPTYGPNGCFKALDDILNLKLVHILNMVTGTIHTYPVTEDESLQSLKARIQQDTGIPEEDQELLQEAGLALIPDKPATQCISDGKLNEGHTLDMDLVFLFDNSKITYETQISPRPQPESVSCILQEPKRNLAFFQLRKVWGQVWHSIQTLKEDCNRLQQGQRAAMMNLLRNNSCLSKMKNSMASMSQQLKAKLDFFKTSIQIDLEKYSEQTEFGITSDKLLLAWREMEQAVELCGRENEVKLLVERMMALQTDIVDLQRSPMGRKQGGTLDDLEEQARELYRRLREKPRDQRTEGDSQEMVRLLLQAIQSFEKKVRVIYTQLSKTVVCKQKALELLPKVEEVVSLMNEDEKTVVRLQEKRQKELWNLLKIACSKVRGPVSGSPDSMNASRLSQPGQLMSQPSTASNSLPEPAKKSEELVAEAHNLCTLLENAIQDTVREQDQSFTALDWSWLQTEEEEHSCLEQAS
Chain of IKK (O15111 whole entry): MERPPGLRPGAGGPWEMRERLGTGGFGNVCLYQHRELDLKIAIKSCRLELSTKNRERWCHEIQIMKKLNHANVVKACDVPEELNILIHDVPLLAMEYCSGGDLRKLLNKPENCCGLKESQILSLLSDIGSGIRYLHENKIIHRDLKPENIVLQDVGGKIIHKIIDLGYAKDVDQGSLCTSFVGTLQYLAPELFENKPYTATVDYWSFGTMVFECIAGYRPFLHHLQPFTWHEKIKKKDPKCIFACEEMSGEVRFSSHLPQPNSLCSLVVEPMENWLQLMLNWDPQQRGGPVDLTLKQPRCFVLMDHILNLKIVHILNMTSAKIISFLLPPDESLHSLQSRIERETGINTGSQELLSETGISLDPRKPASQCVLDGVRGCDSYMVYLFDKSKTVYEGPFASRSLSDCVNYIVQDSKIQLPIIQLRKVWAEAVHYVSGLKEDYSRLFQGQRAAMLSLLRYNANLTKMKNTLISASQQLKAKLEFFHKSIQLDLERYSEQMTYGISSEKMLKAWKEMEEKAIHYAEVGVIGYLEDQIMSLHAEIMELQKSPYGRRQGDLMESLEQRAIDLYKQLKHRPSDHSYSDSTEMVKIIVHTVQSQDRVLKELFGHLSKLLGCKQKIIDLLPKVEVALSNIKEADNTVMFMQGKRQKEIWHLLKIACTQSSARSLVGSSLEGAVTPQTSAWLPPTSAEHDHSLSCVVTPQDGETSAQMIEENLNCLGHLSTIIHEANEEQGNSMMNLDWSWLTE
Chain of IKK (Q9Y6K9 whole entry partner): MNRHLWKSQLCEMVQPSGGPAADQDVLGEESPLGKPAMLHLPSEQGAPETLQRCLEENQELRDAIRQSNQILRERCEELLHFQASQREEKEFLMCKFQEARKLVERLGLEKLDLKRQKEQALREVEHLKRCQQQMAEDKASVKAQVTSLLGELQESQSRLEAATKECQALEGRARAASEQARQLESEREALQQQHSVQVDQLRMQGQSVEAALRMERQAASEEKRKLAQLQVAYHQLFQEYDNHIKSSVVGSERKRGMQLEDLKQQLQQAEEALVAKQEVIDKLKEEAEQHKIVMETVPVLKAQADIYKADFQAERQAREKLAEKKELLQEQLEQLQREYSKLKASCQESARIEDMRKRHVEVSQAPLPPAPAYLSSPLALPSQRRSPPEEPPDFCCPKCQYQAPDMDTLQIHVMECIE
Experimental: Cells used in the experiments described herein were cultured in either RPMI 1640 (Jurkat cells) or DMEM (HeLa and COS cells), supplemented with 10% FBS and antibiotics. Cells were stimulated with either 25 ng/ml TPA, 20 ng/ml recombinant TNFα, or 10 ng/ml interleukin 1β (Sigma). PGA1, 15dPGJ2, T×B2, LTB4, AA and other PGs (Cayman) dissolved in ethanol were used as well, as known in the art (See e.g., Rossi et al., 94:746-750 [1997]). Controls received equal amounts of ethanol. Transfections were performed using Lipofectamine Plus (GIBCO) for HeLa and COS cells and DEAE-dextran (Sigma) for Jurkat cells. Xpress-tagged NIK, Xpress-tagged MEKK1, HA-tagged IKKα, and HA-tagged IKKβ were also used (See e.g., Zandi et al., Science 281:1360-1363 [1998]; and Delhase et al., Science 284:309-313 [1999]). COX2 and cPLA2 expression vectors were obtained from Dr. L. Feng (See also, Hirose et al., J. Am. Soc. Nephrol., 9:408-416 [1998]). PGD synthase was cloned from HT29 colon carcinoma cell line cDNA by PCR and subcloned into a pCDNA3 vector. Cells were lysed in buffer B (50 mM Tris-HCl, pH 7.5, 400 mM NaCl, 1 mM EDTA, 1 mM EGTA, 1% Triton, 0.5% NP-40, 10% glycerol, and supplemented with 20 mM β-glycerophosphate, 10 mM PNPP, […] 1 mM PMSF, 20 μg/ml aprotinin, 2.5 μg/ml leupeptin, 8.3 μg/ml bestatin, 1.7 μg/ml pepstatin, and 2 mM DTT).
Cell lysates were incubated with anti-IKKα (Pharmingen), anti-HA (12CA5; Pharmingen), anti-JNK1 (333.8; Pharmingen), or anti-p38 (New England Biolabs) for 2 hours. Then, 15 μl protein A-Sepharose (Sigma) were added and the mixture was allowed to incubate for 1 hour. After extensive washing, kinase assays were performed as known in the art (See e.g., DiDonato et al., Nature 388:548-554 [1997]). Endogenous IKK, HA-tagged IKKα, endogenous JNK1, and p38 activities were determined with GST-1κBα(1-54), GST-c-Jun(1-79), and GST-ATF2 as substrates.
In this Example, experiments to determined the effects of arachidonic acid and its metabolites on IKK activity in vivo and in vitro are described. HeLa cells were treated with 50 μM AA, PGA1, PGB2, PGD2, PGE1, PGE2, PGF1α, or thromboxane B2 (T×B2), 1 μM LTB4, or 5 μM 15dPGJ2, for 2 hours in RPMI containing 10% FCS, and stimulated with TNFα for 10 minutes. Cell lysates were then assayed for endogenous IKK activity and recovery. In this FIGURE, “control” indicates unstimulated cells, and “-” indicates treatment with diluent alone. In addition, IKK was immunoprecipitated from TNFα-stimulated HeLA cells and incubated in vitro with 100 μM AA, PGA1, PGB2, PGD2, PGE1, PGE2, PGF1α, or T×B2, 2 μM LTB4 or 10 μM 15dPGJ2, followed by kinase assay and immunoblot analysis. In this FIGURE, “control” indicates to unstimulated cells, and “-”indicates 1% ethanol.

Structure (SMILES) | sensitivity of recombinant IKKβ(C179A) (IKKβ(C179A)) | effect on IKK activity (IKK) | IC50 (IKK; HeLa cells, TNFα, read-out: half-maximal inhibition of IKK activity) [µM]
CCCCC/C=C/C=C1/C(=O)C=C[C@@H]1C/C=C\CCCC(=O)O [15dPGJ2, 15-deoxy-Δ^12-14-PGJ2] | resistant | inhibited | 5.08
CCCCC[C@H](O)/C=C/[C@H]1C=CC(=O)C1CCCCCCC(=O)O (some centres unmarked) [PGA1, prostaglandin A1] | resistant | inhibited | 

Reference: US6649654B1, “Methods for identifying and using IKK inhibitors” (The Regents of the University of California, priority 1999, dated 2003)
